Assay: Cyclic DSC heating followed by XRPD / 1H-NMR (thermal stability of solid form)
Type: physicochemical
Experimental: Based on ^1H-NMR data, decomposition of Type A initiated after heating to 200° C. (see FIG. 14).
XRPD was performed using a Panalytical X'Pert3™ Powder XRPD and on a Si zero-background holder. The 2θ position was calibrated against a Panalytical™ 640 Si powder standard. Details of XRPD used in the experiments are listed below in Table 20.
In some studies, a cyclic DSC method was used. In such cycling DSC methods temperature was ramped from ambient to 150° C. at a heating rate of 10° C./min using N2 as the purge gas, then cooled by 10° C. to 25° C. This temperature cycle repeated twice (see Table 22).
Proton NMR were obtained using a Varian 200M™ NMR in deuterated DMSO (DMSO-d6).

COc1cc2c(cc1OC)CN(CCc1ccc(-n3nnc(-c4cc(OC)c(OC)cc4NC(=O)c4cc(=O)c5ccccc5o4)n3)cc1)CC2.CS(=O)(=O)O [HM30181 mesylate Type A, HM30181 mesylate]
Heating temperature after which decomposition initiated (1H-NMR) (1H-NMR of heated sample): 200 °C | XRPD after cyclic DSC (heated to 110° C.): no XRPD change | XRPD after cyclic DSC (heated to 185° C.): reduced crystallinity | XRPD after cyclic DSC (heated to 200° C.): amorphous material
